Results reported in PMC11062922 (Nature Chemical Biology, 2023).

Assays:
ABL2 = molecular target: T1, ABL2 (Homo sapiens, UniProt P42684); test: Kinobeads competition binding: ABL2; conditions: target ABL2
T1 construct: endogenous in cells

AURKB = molecular target: T2, AURKB (Homo sapiens, UniProt Q96GD4); test: Kinobeads competition binding: AURKB; conditions: target AURKB
T2 construct: endogenous in cells

BMPR1B = molecular target: T3, BMPR1B (Homo sapiens, UniProt O00238); test: Kinobeads competition binding: BMPR1B; conditions: target BMPR1B;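 also: selectivity score: engagement of this protein divided by summed engagement of all targets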
T3 construct: endogenous in cells

CAMK4 = test: Kinobeads competition binding: CAMK4; design: species or system human; conditions: target CAMK4;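 also: selectivity score: engagement of this protein divided by summed engagement of all targets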
CLK1 = molecular target: T4, CLK1 (Homo sapiens, UniProt P49759); test: Kinobeads competition binding: CLK1; conditions: target CLK1
T4 construct: endogenous in cells

DYRK1A = molecular target: T5, DYRK1A (Homo sapiens, UniProt Q13627); test: Kinobeads competition binding: DYRK1A; conditions: target DYRK1A
T5 construct: endogenous in cells

FES = molecular target: T6, FES (Homo sapiens, UniProt P07332); test: Kinobeads competition binding: FES; conditions: target FES;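 also: selectivity score: engagement of this protein divided by summed engagement of all targets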
T6 construct: endogenous in cells
Description: Supplement 41589_2023_1459_MOESM4_ESM.xlsx, sheet "CATDS matrix" | column: FES

FYN = molecular target: T7, FYN (Homo sapiens, UniProt P06241); test: Kinobeads competition binding: FYN; conditions: target FYN;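 also: share of total target engagement due to this protein at one drug concentration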
T7 construct: endogenous in cells
Description: Supplement 41589_2023_1459_MOESM4_ESM.xlsx, sheet "CATDS matrix" | column: FYN

LATS1 = molecular target: T8, LATS1 (Homo sapiens, UniProt O95835); test: Kinobeads competition binding: LATS1; conditions: target LATS1
T8 construct: endogenous in cells
T8 sequence (O95835 1-1130): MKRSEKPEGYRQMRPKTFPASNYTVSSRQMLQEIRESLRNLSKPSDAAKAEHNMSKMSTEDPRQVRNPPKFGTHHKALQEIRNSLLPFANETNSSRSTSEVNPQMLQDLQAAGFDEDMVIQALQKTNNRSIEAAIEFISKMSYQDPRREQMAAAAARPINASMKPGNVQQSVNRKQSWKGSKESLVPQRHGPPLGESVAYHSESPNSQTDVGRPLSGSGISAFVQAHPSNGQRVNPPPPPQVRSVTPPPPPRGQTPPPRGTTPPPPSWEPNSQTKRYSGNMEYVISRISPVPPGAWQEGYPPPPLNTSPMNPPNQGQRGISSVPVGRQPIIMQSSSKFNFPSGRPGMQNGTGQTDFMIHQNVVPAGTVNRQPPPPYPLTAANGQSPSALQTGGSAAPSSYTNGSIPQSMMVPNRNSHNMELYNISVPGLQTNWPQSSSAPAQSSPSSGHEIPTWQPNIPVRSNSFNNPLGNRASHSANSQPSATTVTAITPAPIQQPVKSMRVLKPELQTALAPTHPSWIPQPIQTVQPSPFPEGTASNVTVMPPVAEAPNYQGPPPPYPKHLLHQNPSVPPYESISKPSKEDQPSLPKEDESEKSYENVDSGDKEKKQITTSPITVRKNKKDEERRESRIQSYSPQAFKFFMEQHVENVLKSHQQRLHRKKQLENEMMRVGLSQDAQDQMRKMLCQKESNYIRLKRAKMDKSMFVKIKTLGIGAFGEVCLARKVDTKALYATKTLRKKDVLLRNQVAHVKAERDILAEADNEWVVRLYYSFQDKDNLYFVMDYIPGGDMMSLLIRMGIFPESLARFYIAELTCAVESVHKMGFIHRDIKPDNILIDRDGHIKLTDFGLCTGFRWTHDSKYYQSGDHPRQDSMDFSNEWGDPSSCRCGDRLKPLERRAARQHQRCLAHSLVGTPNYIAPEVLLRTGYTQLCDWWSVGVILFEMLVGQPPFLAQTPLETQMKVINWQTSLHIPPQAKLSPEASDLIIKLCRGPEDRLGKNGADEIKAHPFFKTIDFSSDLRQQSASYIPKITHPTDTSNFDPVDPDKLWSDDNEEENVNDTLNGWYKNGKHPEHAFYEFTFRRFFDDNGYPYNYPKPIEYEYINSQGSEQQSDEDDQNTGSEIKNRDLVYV
Description: Supplement 41589_2023_1459_MOESM4_ESM.xlsx, sheet "CATDS matrix" | column: LATS1

MAP2K5 = test: Kinobeads competition binding: MAP2K5; design: species or system human; conditions: target MAP2K5
MAP3K11 = test: Kinobeads competition binding: MAP3K11; design: species or system human; conditions: target MAP3K11
MAPK1 = test: Kinobeads competition binding: MAPK1; design: species or system human; conditions: target MAPK1
MAPK3 = test: Kinobeads competition binding: MAPK3; design: species or system human; conditions: target MAPK3
MAPK8 = test: Kinobeads competition binding: MAPK8; design: species or system human; conditions: target MAPK8
PAK4 = molecular target: T9, PAK4 (Homo sapiens, UniProt O96013); test: Kinobeads competition binding: PAK4; conditions: target PAK4
T9 construct: a mixture of lysates from five cancer cell lines; endogenous in cells
Description: Supplement 41589_2023_1459_MOESM4_ESM.xlsx, sheet "CATDS matrix" | column: PAK4

PIK3C2A = test: Kinobeads competition binding: PIK3C2A; design: species or system human; conditions: target PIK3C2A;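 also: share of all-target engagement taken by this protein at its own Kdapp concentration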
PIM3 = molecular target: T10, PIM3 (Homo sapiens, UniProt Q86V86); test: Kinobeads competition binding: PIM3; conditions: target PIM3
T10 construct: a mixture of lysates from five cancer cell lines; endogenous in cells
Description: Supplement 41589_2023_1459_MOESM4_ESM.xlsx, sheet "CATDS matrix" | column: PIM3

PIP4K2C = molecular target: T11, PIP4K2C (Homo sapiens, UniProt Q8TBX8); test: Kinobeads competition binding: PIP4K2C; conditions: target PIP4K2C
T11 construct: a mixture of lysates from five cancer cell lines; endogenous in cells
T11 sequence (Q8TBX8 1-421): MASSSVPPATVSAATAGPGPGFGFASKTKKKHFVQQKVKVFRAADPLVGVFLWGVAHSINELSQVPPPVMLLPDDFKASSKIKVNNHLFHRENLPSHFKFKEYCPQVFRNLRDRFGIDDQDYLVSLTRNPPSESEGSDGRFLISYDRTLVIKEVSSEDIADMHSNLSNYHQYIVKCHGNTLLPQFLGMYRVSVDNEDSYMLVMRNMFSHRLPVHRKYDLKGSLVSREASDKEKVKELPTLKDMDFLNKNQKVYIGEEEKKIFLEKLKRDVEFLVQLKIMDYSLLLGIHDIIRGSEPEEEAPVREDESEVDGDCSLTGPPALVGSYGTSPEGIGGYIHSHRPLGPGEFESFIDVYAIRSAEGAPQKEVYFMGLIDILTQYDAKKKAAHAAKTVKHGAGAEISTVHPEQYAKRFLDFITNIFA
Description: Supplement 41589_2023_1459_MOESM4_ESM.xlsx, sheet "CATDS matrix" | column: PIP4K2C

T1 sequence (P42684 whole entry): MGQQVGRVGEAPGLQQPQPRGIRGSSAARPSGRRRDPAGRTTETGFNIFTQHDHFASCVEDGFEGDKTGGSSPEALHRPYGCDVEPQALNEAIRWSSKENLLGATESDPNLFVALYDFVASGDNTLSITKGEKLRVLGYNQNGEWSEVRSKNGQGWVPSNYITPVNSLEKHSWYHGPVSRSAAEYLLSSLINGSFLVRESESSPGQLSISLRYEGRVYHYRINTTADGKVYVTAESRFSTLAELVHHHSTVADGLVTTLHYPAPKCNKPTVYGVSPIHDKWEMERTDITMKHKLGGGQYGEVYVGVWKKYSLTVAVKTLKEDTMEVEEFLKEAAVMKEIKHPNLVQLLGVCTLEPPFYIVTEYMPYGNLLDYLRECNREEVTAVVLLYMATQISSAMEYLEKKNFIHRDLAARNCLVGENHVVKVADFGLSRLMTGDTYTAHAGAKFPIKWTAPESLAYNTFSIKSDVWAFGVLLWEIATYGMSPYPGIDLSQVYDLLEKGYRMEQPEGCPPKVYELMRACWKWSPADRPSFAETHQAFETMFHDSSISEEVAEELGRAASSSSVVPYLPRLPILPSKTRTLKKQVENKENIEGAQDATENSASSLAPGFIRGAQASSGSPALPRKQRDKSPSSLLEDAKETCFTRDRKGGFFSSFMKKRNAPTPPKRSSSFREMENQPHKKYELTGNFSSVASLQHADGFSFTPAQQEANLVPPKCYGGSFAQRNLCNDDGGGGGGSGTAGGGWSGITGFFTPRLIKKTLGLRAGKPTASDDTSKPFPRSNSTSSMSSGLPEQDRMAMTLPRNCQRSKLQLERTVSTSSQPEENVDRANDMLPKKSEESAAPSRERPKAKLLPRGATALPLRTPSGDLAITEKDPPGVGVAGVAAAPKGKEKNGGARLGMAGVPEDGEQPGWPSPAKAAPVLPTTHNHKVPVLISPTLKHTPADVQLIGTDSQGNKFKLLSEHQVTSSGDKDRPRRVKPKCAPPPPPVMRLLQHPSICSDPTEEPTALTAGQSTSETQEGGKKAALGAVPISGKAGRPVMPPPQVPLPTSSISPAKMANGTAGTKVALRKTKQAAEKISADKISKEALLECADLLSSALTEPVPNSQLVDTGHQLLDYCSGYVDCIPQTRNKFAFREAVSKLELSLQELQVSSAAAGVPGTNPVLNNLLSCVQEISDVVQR
T6 sequence (P07332 whole entry): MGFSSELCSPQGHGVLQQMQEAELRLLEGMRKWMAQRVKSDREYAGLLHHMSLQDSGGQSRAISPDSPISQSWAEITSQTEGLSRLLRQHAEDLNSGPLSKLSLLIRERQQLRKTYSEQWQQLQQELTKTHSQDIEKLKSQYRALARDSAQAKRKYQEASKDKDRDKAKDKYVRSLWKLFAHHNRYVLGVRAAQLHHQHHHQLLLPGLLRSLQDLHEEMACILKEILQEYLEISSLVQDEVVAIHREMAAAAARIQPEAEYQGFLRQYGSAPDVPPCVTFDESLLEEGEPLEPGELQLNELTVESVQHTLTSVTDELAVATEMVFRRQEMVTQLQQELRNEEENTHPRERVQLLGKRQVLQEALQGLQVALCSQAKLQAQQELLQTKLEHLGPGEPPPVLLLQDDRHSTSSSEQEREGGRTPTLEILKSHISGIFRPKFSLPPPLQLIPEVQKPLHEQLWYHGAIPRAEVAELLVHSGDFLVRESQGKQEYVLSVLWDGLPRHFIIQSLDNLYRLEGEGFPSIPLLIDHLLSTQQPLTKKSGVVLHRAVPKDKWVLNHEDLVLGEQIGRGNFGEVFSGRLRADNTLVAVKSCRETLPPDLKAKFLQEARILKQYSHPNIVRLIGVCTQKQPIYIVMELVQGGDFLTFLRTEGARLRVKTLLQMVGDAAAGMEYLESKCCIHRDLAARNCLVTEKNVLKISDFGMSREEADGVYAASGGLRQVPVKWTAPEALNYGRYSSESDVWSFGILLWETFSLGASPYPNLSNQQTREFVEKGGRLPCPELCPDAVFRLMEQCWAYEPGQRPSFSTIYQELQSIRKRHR
T3 sequence (O00238 14-502): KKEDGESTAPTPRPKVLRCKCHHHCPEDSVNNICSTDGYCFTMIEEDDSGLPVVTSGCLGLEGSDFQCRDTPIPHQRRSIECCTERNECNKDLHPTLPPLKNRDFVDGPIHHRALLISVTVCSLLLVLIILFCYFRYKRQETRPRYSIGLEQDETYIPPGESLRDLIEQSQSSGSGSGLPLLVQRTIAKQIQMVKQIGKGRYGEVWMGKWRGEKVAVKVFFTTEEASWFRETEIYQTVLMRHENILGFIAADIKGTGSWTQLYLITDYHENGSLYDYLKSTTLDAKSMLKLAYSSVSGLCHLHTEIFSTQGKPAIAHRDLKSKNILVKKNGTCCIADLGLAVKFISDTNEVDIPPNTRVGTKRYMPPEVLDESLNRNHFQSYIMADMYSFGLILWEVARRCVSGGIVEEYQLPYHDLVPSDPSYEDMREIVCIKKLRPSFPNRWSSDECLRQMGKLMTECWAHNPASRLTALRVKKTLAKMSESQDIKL
T2 sequence (Q96GD4 whole entry): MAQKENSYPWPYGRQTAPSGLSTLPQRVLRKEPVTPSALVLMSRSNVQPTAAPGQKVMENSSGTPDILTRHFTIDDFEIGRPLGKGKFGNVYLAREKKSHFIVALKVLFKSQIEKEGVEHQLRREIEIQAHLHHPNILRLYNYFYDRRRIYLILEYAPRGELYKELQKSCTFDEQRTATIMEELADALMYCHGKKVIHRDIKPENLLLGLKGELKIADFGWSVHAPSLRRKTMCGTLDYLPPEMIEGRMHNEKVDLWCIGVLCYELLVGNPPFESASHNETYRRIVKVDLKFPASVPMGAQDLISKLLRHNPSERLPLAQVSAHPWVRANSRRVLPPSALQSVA
T4 sequence (P49759 whole entry): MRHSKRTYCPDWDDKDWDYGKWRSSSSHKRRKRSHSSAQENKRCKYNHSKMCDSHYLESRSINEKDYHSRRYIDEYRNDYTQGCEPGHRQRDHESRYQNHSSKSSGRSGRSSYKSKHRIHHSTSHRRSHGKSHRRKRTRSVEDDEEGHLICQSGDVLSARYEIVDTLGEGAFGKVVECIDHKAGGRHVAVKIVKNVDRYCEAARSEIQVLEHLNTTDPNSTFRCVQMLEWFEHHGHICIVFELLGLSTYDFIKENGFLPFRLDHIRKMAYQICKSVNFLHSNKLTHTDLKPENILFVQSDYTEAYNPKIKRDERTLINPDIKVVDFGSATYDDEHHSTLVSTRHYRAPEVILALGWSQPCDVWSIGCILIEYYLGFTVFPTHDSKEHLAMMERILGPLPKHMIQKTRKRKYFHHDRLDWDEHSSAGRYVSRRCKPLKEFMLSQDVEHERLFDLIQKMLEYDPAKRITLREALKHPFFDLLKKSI
T7 sequence (P06241 whole entry): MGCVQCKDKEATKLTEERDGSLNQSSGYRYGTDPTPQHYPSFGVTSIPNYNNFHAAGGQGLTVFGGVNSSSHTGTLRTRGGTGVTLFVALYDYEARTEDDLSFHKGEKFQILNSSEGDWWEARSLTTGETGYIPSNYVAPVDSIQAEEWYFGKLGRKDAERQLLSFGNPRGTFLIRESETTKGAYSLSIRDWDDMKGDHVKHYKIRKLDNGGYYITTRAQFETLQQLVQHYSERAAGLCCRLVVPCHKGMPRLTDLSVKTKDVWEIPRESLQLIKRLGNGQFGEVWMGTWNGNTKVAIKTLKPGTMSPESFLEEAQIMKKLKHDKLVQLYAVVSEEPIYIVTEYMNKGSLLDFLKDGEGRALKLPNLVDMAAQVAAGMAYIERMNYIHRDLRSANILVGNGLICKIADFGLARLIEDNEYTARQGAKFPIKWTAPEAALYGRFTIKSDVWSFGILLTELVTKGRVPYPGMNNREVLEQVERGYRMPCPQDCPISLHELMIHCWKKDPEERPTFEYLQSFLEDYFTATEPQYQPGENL
T9 sequence (O96013 whole entry): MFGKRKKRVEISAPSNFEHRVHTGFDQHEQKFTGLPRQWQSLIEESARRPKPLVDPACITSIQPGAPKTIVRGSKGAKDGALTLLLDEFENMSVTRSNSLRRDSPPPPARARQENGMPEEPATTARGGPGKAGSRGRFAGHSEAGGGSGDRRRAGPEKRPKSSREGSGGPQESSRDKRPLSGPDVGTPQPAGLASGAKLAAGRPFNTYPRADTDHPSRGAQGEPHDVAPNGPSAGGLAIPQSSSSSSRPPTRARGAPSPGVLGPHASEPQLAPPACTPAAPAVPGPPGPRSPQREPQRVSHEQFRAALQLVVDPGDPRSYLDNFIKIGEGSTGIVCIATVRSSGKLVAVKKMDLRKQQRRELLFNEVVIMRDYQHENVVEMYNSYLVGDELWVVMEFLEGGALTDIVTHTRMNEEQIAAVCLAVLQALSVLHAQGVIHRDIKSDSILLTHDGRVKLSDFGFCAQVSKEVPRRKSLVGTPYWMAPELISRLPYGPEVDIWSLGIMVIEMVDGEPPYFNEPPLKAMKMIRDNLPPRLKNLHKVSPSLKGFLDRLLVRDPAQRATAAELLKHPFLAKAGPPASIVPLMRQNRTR

SMILES | CATDS (ABL2) | CATDS (AURKB) | CATDS (BMPR1B) | CATDS (CAMK4) | CATDS (CLK1) | CATDS (DYRK1A) | CATDS (FES) | CATDS (FYN) | CATDS (LATS1) | CATDS (MAP2K5) | CATDS (MAP3K11) | CATDS (MAPK1) | CATDS (MAPK3) | CATDS (MAPK8) | CATDS (PAK4) | CATDS (PIK3C2A) | CATDS (PIM3) | CATDS (PIP4K2C)
Nc1ncnc2[nH]c(-c3ccccc3)nc12 [AH5015_KCGS] | 0 | 0 | 0 | 0 | 0 | 0 | 0 | 0 | 0 | 0 | 0 | 0 | 0 | 0 | 0 | 0 | 0 | 0
CCN1CCN(Cc2ccc(Nc3ncc(F)c(-c4cc(F)c5nc(C)n(C(C)C)c5c4)n3)nc2)CC1 [Abemaciclib] | 0 | 0 | 0 | 0 |  |  | 0 | 0 | 0 | 0 | 0 | 0 | 0 | 0 | 0 | 0 | 0 | 0
CN(C)C/C=C/C(=O)Nc1cc2c(Nc3ccc(F)c(Cl)c3)ncnc2cc1O[C@H]1CCOC1 [Afatinib] |  |  |  |  |  |  | 0 | 0 | 0 |  |  |  |  |  | 0 | 0 | 0 | 0
CCc1cc2c(cc1N1CCC(N3CCOCC3)CC1)C(C)(C)c1[nH]c3cc(C#N)ccc3c1C2=O [Alectinib] | 0 | 0 | 0 | 0 | 0 | 0 | 0 | 0 | 0 | 0 | 0 | 0 | 0 | 0 | 0 | 0 | 0 | 0
N#CC1(c2ccc(NC(=O)c3cccnc3NCc3ccncc3)cc2)CCCC1 [Apatinib] | 0 | 0 | 0 | 0 | 0 | 0 | 0 | 0 | 0 | 0 | 0 | 0 | 0 | 0 | 0 | 0 | 0 | 0
